Results: patent US20130149311A1, “GFI1B MODULATION AND USES THEREOF” (INSTITUT DE RECHERCHES CLINIQUES DE MONTREAL, priority 2010, published 2013)

System: HSCs
Assay: N-Acetyl-Cystein (NAC) feeding of plpC-treated Gfi1b^fl/fl and MxCre tg Gfi1b^fl/fl mice; hematological compartments and HSC numbers by flow cytometry
Format: in vivo
Conditions: for Number of HSCs in BM NAC treatment / % Lin^− cells in BM NAC treatment / Number of BM cells × 10^6 NAC treatment / Number of HSCs in Spleen NAC treatment / Number of HSCs per 1 ml blood NAC treatment / Number of Lin^− cells × 10^6 NAC treatment / Number of splenocytes × 10^6 NAC treatment: plpC-treated, fed daily with N-Acetyl-Cystein, mean ± SEM
Method: Treatment. MxCre tg Gfi1^fl/fl or Gfi1b^fl/fl mice were injected with polyinosinic-polycytidylic acid (plpC) (Sigma-Aldrich) at a dose of 500 μg per injection every other day for a total of 5 injections. As control, wt or Gfi1b^fl/fl mice not carrying the MxCre tg were injected with plpC. With regard to N-Acetyl-Cystein (Sigma-Aldrich, Mississagua) treatment, mice were fed every day with 500 μl N-Acety-Cystein (50 mg/ml)
Flow cytometry analysis, sorting of HSC and progenitors. HSCs and progenitors were analyzed with a LSR™, or Cyan flow cytometers and HSC were sorted with a MoFlo™ from adult mouse bone marrow as described previously (Kiel et al., 2005, supra; Adolfsson J et al., Cell 2005; 121:295-306). The BrdU experiments and the determination of cell cycle phases by Hoechst staining was done according to described procedures (Wilson et al., 2005, supra). Reactive oxygen species (ROS) were analyzed by staining HSCs with 5-(and-6)-carboxy-2′,7′-dichlorodihydrofluorescein diacetate (carboxy-H2DCFDA) (Invitrogen, Burlington, Canada) for 30 min at 37° C. After staining, cells were analyzed by flow cytometry for level of ROS in HSCs.
To verify whether loss of Gfi1b activates HSCs and that this activation leads to increased level of ROS which in turn could lead to an expansion of HSCs, mice were fed with N-Acetyl-Cystein (NAC), which counteracts the effects of ROS (Ito K, et al. Nat Med. April 2006; 12(4):446-451).

[1] = Gfi1b^fl/fl Mx-Cre tg (Gfi1b deficient) mice
[2] = Gfi1b^fl/fl Mx-Cre tg vs Gfi1b^fl/fl, both NAC treated

CC(=O)N[C@@H](CS)C(=O)O [NAC, N-Acetyl-Cystein]
Number of HSCs in BM NAC treatment (Gfi1b^fl/fl (wt) mice, HSCs = Lin^−, Sca-1^+, Kit^+, CD150^+, CD48^−): 1700 ± 700,
% Lin^− cells in BM NAC treatment (Gfi1b^fl/fl (wt) mice): 1.5 ± 0.1, %
Number of BM cells × 10^6 NAC treatment (Gfi1b^fl/fl (wt) mice): 45 ± 4, × 10^6
Number of HSCs in Spleen NAC treatment (Gfi1b^fl/fl (wt) mice): 197 ± 77,
Number of HSCs per 1 ml blood NAC treatment (Gfi1b^fl/fl (wt) mice): 11 ± 1, per 1 ml blood
Number of Lin^− cells × 10^6 NAC treatment (Gfi1b^fl/fl (wt) mice): 0.8 ± 0.1, × 10^6
Number of splenocytes × 10^6 NAC treatment (Gfi1b^fl/fl (wt) mice): 86 ± 22, × 10^6
% Lin^− cells in BM NAC treatment [1]: 2.45 ± 0.5, %
Number of BM cells × 10^6 NAC treatment [1]: 44 ± 2, × 10^6
Number of HSCs in BM NAC treatment [1]: 5700 ± 1100,
Number of HSCs in Spleen NAC treatment [1]: 6000 ± 2000,
Number of HSCs per 1 ml blood NAC treatment [1]: 307 ± 100, per 1 ml blood
Number of Lin^− cells × 10^6 NAC treatment [1]: 1.1 ± 0.4, × 10^6
Number of splenocytes × 10^6 NAC treatment [1]: 104 ± 22, × 10^6
% Lin^− cells in BM NAC treatment, fold change [2]: 1.6
Number of BM cells NAC treatment, fold change [2]: 1
Number of HSCs in BM NAC treatment, fold change [2]: 3
Number of HSCs in Spleen NAC treatment, fold change [2]: 30
Number of HSCs per 1 ml blood NAC treatment, fold change [2]: 28
Number of Lin^− cells NAC treatment, fold change [2]: 1.4
Number of splenocytes NAC treatment, fold change [2]: 1.2
Effect on expansion of Gfi1b^ko/ko HSCs (frequencies and absolute numbers) (bone marrow, spleen and peripheral blood, NAC-treated vs untreated Gfi1b-deficient mice): significantly limited the expansion
